Legend:
MRSA GIM 1.771 = experiment: Time-killing kinetics, viable cell counts; assay type: cell-based, Staphylococcus aureus; settings: for instantaneous killing action, log10 reduction: at 0 h, viable cell counts on TSB agar, exponential-phase culture, 37°C
Protocol: The bacteriostatic or bactericidal mode of action of pentocin JL-1 was tested as described previously by Zhu et al. with some modifications. MRSA GIM 1.771 was cultivated to the exponential phase in 100 mL of TSB culture medium. The lyophilized purified pentocin JL-1 dissolved in 0.05% (w/v) acetic acid was added to the cultures at a final concentration of 1x MIC and the same volume of 0.05% (w/v) acetic acid was added to the aforementioned media as a control. Samples were incubated at 37°C and bacterial suspensions were taken each hour for 24 h, and the absorbance was measured at OD600. In addition, the viable cell counts on TSB agar medium after the addition of 1x MIC, 2x MIC, and 3x MIC of pentocin JL-1 were also quantified every 10 min for 1 h.

[1] = system: Multidrug-resistant S. aureus 1; experiment: Agar-well diffusion test; assay type: cell-based; settings: 15 μg/mL, pH 5.5, pork isolate resistant to FOX, TET, mean ± SD, triplicate
Protocol: (§1) The intestinal tracts of C. punctatum (grey carpet shark) were dissected and homogenized in 20 mL saline solution under sterile conditions and were then plated in serial dilutions in deMan, Rogosa, and Sharpe (MRS) medium. The plates were incubated aerobically at 30°C for 24 h. Several colonies were picked at random and incubated again in MRS broth. For screening for bacteriocin-producing strains, the agar-well diffusion test was used to detect antimicrobial activity in cell-free supernatants (filtered through a 0.22 μm Millipore filter) obtained by centrifugation (10,000g, 30 min, 4°C) after 18, 36, 60, and 72 h incubation. The Gram-positive strain MRSA GIM 1.771 and the Gram-negative strain Escherichia coli O157:H7 GIM 1.707 were used as indicator strains. Before the experiments, the indicator strains were grown to 10^6 CFU/mL. Then, 1 mL of the culture was mixed with 100 mL soft agar medium and poured onto individual Petri dishes. Subsequently, 8 mm diameter wells were punched onto the plates, and each well was filled with 100 μL of the cell-free supernatants under sterile conditions. The plates were incubated overnight at their respective optimum temperatures, and the clear zones of inhibition were measured in diameter and indicated the presence of antimicrobial activity. In our study, all bacteria culture media and chemical reagents were supplied by Sigma-Aldrich (USA).
(§2) The agar-well diffusion test as described previously was used to detect the antimicrobial activity of the purified pentocin JL-1 (15 μg/mL, pH 5.5). LAB strains were grown in MRS broth at 30°C for 16 h. Other Gram-positive indicator strains were grown in Tryptone Soy Broth (TSB) medium at 37°C and the Gram-negative indicator strains were grown in Luria-Bertani broth medium at 37°C.

[2] = system: Bacillus subtilis CGMCC1.1627; experiment: Agar-well diffusion test; assay type: cell-based
Protocol: as §1, §2

[3] = system: Lactobacillus acidophilus ATCC314; experiment: Agar-well diffusion test; assay type: cell-based
Protocol: as §1, §2

[4] = system: Multidrug-resistant S. aureus 4; experiment: Agar-well diffusion test; assay type: cell-based; settings: 15 μg/mL, pH 5.5, pork isolate resistant to FOX, TET, C, mean ± SD, triplicate
Protocol: as §1, §2

[5] = system: Multidrug-resistant S. aureus 5; experiment: Agar-well diffusion test; assay type: cell-based; settings: 15 μg/mL, pH 5.5, pork isolate resistant to FOX, TET, GEN, C, mean ± SD, triplicate
Protocol: as §1, §2

[6] = system: Lactobacillus casei ATCC393; experiment: Agar-well diffusion test; assay type: cell-based; settings: purified pentocin JL-1 15 μg/mL, pH 5.5, inhibition zone diameter class incl. 8 mm well
Protocol: as §1, §2

[7] = system: Vibrio parahaemolyticus GIM1.306; experiment: Agar-well diffusion test; assay type: cell-based
Protocol: as §1, §2

[8] = system: Enterococcus faecalis ATCC51575; experiment: Agar-well diffusion test; assay type: cell-based
Protocol: as §1, §2

[9] = system: Multidrug-resistant S. aureus 6; experiment: Agar-well diffusion test; assay type: cell-based; settings: 15 μg/mL, pH 5.5, pork isolate resistant to CIP, FOX, C, SXT, TET, GEN, mean ± SD, triplicate
Protocol: as §1, §2

[10] = system: Listeria monocytogenes ATCC19112; experiment: Agar-well diffusion test; assay type: cell-based
Protocol: as §1, §2

[11] = system: Micrococcus luteus CGMCC1.2299; experiment: Agar-well diffusion test; assay type: cell-based
Protocol: as §1, §2

[12] = system: Pseudomonas aeruginosa CGMCC1.1785; experiment: Agar-well diffusion test; assay type: cell-based
Protocol: as §1, §2

[13] = system: Multidrug-resistant S. aureus 2; experiment: Agar-well diffusion test; assay type: cell-based; settings: 15 μg/mL, pH 5.5, pork isolate resistant to FOX, GEN, mean ± SD, triplicate
Protocol: as §1, §2

[14] = system: Multidrug-resistant S. aureus 3; experiment: Agar-well diffusion test; assay type: cell-based; settings: 15 μg/mL, pH 5.5, pork isolate resistant to FOX, TET, GEN, mean ± SD, triplicate
Protocol: as §1, §2

[15] = Thermal sensitivity, residual antibacterial activity; assay type: physicochemical; settings: for Residual inhibitory activity (inhibition zone diameter, mm): 15 μg/mL in 0.05% (w/v) acetic acid, agar-well diffusion vs MRSA GIM 1.771, mean ± SD, triplicate; for Residual inhibitory activity (%): 15 μg/mL in 0.05% acetic acid, vs MRSA GIM 1.771, relative to control
Protocol: To determine thermal sensitivity, lyophilized purified pentocin JL-1 dissolved in 0.05% (w/v) acetic acid at 15 μg/mL was evaluated at different temperatures (−20°C, 4°C, 30°C, 60°C, and 100°C) for 1 h and also at the autoclaved condition (121°C at 15 psi for 15 min).
The residual antibacterial activities of the above samples were calculated using the agar-well diffusion test with MRSA GIM 1.771 as the indicator strain. […] Lyophilized pentocin JL-1 dissolved in 0.05% (w/v) acetic acid at 15 μg/mL with pH 5.5 was used as a control in all assays.

[16] = purified pentocin JL-1 15 μg/mL, pH 5.5, inhibition zone diameter class incl. 8 mm well
[17] = 121°C, 15 min (autoclaved, 15 psi)

Substance: VAKVAR [pentocin JL-1, novel bacteriocin produced by Lactobacillus pentosus JL-1, purified by four-step chromatography, molecular mass 2987.23 Da, cationic and hydrophobic peptide]
- instantaneous killing action, log10 reduction (MRSA GIM 1.771; 1x MIC): 1.05 log10
- mode of action (bacteriostatic or bactericidal) (MRSA GIM 1.771; 1x, 2x, 3x MIC, viable counts over 1 h): bactericidal
- instantaneous killing action, log10 reduction (MRSA GIM 1.771; 2x MIC): 2.14 log10
- instantaneous killing action, log10 reduction (MRSA GIM 1.771; 3x MIC): 2.21 log10
- Inhibitor zone [1]: 23.8 ± 0.8 mm
- inhibitory activity ([2]; 15 μg/mL, pH 5.5): inhibited
- Antimicrobial activity [2, 16]: ++ (++: 15–19)
- inhibitory activity ([3]; 15 μg/mL, pH 5.5): no inhibitory activity
- Antimicrobial activity [3, 16]: −
- Inhibitor zone [4]: 22.4 ± 0.6 mm
- Inhibitor zone [5]: 23.9 ± 1.5 mm
- Antimicrobial activity [6]: +++ (+++: 20–25)
- inhibitory activity ([7]; 15 μg/mL, pH 5.5): no inhibitory activity
- Antimicrobial activity [7, 16]: −
- inhibitory activity ([8]; 15 μg/mL, pH 5.5): inhibited
- Antimicrobial activity [8, 16]: ++ (++: 15–19)
- Inhibitor zone [9]: 23.7 ± 0.6 mm
- inhibitory activity ([10]; 15 μg/mL, pH 5.5): inhibited
- Antimicrobial activity [10, 16]: ++ (++: 15–19)
- inhibitory activity ([11]; 15 μg/mL, pH 5.5): inhibited
- Antimicrobial activity [11, 16]: ++ (++: 15–19)
- inhibitory activity ([12]; 15 μg/mL, pH 5.5): inhibited
- Antimicrobial activity [12, 16]: + (+: 10–14)
- Inhibitor zone [13]: 22.5 ± 1.2 mm
- Inhibitor zone [14]: 24.3 ± 0.7 mm
- Residual inhibitory activity (inhibition zone diameter, mm) ([15]; 4°C, 1 h): 23.8 ± 1.2 mm
- Residual inhibitory activity (%) ([15]; 4°C, 1 h): 99.58%
- Residual inhibitory activity (inhibition zone diameter, mm) ([15]; 30°C, 1 h): 23.9 ± 0.2 mm
- Residual inhibitory activity (%) ([15]; 30°C, 1 h): 100.00%
- Residual inhibitory activity (inhibition zone diameter, mm) ([15]; 60°C, 1 h): 23.6 ± 0.8 mm
- Residual inhibitory activity (%) ([15]; 60°C, 1 h): 98.74%
- Residual inhibitory activity (inhibition zone diameter, mm) ([15]; 100°C, 1 h): 22.6 ± 0.8 mm
- Residual inhibitory activity (inhibition zone diameter, mm) [15, 17]: 20.1 ± 0.9 mm
- Residual inhibitory activity (%) [15, 17]: 84.10^∗ %
- Residual inhibitory activity (inhibition zone diameter, mm) ([15]; −20°C, 1 h): 22.2 ± 1.0 mm

From publication PMC5733122, “Purification, Characterization, and Mode of Action of Pentocin JL-1, a Novel Bacteriocin Isolated from Lactobacillus pentosus, against Drug-Resistant Staphylococcus aureus” (BioMed Research International, 2017)
